Values of other authors, collected in patent US20070092567A1 (GALEPHAR M/F, priority 2001, published 2007).
Entries after “also recorded” stand apart in the source; their conditions may differ.

How the values were obtained:
[1] = not given; remark: listed apart in the source
[2] = biological target: cytochrome P450 2C9 isoenzyme (Homo sapiens, UniProt P11712)
cytochrome P450 3A4 = cytochrome P450 3A4 (Homo sapiens, UniProt P08684)
cytochrome P450 3A4, sequence (P08684 whole entry): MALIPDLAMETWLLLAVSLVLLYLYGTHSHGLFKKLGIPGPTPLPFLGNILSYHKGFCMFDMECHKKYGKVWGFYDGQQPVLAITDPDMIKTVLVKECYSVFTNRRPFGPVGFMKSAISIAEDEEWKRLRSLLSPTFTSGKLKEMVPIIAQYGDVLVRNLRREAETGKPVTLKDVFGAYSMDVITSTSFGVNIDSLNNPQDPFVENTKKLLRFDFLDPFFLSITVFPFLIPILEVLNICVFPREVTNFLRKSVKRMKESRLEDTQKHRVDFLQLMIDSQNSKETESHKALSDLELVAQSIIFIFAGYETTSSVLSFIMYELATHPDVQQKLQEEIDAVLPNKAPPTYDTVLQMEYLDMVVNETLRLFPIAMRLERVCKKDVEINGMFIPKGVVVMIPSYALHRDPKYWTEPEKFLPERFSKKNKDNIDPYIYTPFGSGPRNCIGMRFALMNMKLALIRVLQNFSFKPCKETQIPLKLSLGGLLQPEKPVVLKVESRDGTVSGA

cytochrome P450 2C9 isoenzyme, sequence (P11712 whole entry): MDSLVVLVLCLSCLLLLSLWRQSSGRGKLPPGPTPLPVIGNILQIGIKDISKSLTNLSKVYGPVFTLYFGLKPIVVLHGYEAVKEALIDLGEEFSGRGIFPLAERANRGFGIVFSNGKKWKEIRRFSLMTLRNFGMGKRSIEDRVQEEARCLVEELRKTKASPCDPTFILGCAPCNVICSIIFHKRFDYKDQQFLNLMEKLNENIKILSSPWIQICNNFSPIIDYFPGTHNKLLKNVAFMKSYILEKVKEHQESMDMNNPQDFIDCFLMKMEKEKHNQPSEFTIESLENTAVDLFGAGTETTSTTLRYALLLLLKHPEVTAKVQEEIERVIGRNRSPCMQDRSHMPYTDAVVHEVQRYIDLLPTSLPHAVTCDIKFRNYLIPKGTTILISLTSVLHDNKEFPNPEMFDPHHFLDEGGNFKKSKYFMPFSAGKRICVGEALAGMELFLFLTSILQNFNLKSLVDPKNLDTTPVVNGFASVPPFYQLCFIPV

SMILES: CC(C)(Oc1ccc(C(=O)c2ccc(Cl)cc2)cc1)C(=O)O [fenofibric acid]
- mean plasma half-life (healthy, fasting young adults): 19.6 to 26.6 h
- eliminated in the urine as fenofibric acid ester glucuronide (in vivo): 60-88%
- Peak plasma levels (single oral dose of 300 mg fenofibrate): 6 to 9.5 mg/L

SMILES: CC[C@H](C)C(=O)O[C@H]1C[C@H](O)C=C2C=C[C@H](C)[C@H](CC[C@@H](O)C[C@@H](O)CC(=O)O)[C@H]21 [pravastatin]
- metabolisation through the cytochrome P450 system (cytochrome P450 system): not metabolised through the cytochrome P450 system; also recorded: does not involve the cytochrome P450 system
- average oral absorption ([1]; based on urinary recovery of radiolabeled drug): 34%
- decrease of systemic bioavailability following a bedtime dose compared to morning administration ([1]; human, in vivo): 60%

SMILES: CC(C)OC(=O)C(C)(C)Oc1ccc(C(=O)c2ccc(Cl)cc2)cc1 [Fenofibrate, p-(4-chlorobenzoyl)-phenoxy isobutyrate isopropyl ester]
- metabolisation by cytochrome P450 2C9 isoenzyme [2]: only weakly metabolised
- metabolisation by cytochrome P450 3A4 (cytochrome P450 3A4): not metabolised by cytochrome P450 3A4
